Data reported in patent US20070043118A1, “Method of treating a subject suffering from degenerative disc disease using a nitric oxide synthase inhibitor” (Discogen, LLC, priority 2005, published 2007).

Columns and labels:
[1] = tested on: patients with chronic intractable lower back pain and positive discography; assay: Biochemical injection treatment in human subjects (intradiscal injection; disability questionnaire and visual analogue pain scale); type: in vivo; conditions: intradiscal injection of 1 to 2 cc disc solution per involved disc
Excerpt: Thirty patients with chronic intractable lower back pain and positive discography would participate in the study. These would be adult patients with chronic lower back pain who have been unresponsive or responded poorly to multiple previous methods of treatment, including physical therapy, multiple analgesics, injection therapy, laminectomies, fusions and intradiscal electrothermal annuloplasty (IDET) procedures. These patients would have positive discography at one or more lumbar levels and concordant pain provocation combined with morphologic disc abnormalities.
Using sterile techniques and United States Pharmacopeia-grade pharmaceuticals solutions containing the NOS inhibitors are prepared, specifically, one solution is prepared for each of GED, L-NAME, and L-NMMA. The “GED disc solution” consists of 0.3 mg/kg to 10 mg/kg GED by subject weight; 1.0 to 100 micromolar by concentration. The “L-NAME disc solution” consists of 1.0 mg/kg L-NAME by subject weight; 5.0 to 100 micromolar by concentration. The “L-NMMA disc solution” consists of 1.0 mg/kg L0NMA by subject weight; 5.0 to 100 micromolar by concentration. These concentrations are derived based on solubility and tolerance characteristics of the constituents. These are mixed with 33% nonionic contrast and 33% of 50% dextrose at the time of injection. A total of 1 to 2 cc of each solution is injected into each involved disc. All solutions are tested on separate patients. Injection promptly terminates if there is any leakage of contrast into the epidural space. Zygapophyseal joint injections are performed after fluroscopic confirmation of correct needle placement using intra-articular contrast and are performed at the same levels as the disc injections.
To avoid patient discomfort, the first series of injections are performed at the time of diagnostic discography. An intradiscal injection of 1 to 2 cc is used at each involved disc level. The levels are determined by discography. This is combined with injection of the zygapophyseal joints at the painful disc level(s) with the modified solution mixture as described above. […]

[2] = tested on: disc tissue obtained from human subjects; conditions: in vitro; cited from earlier work

| Structure (SMILES) | treatment outcome: pain and disability before and after treatment (disability questionnaire 0-24, visual analogue pain scale 0-10) [1] | level of NO present in disc tissue [2] |
| --- | --- | --- |
| N=C(N)NCCSSCCNC(=N)N [GED, guanidinoethyldisulfide] | effective in treating the patients and providing symptomatic relief |  |
| [H]/N=C(\NC)NCCC[C@H](N)C(=O)O [L-NMMA, N-monomethyl-L-arginine] | effective in treating the patients and providing symptomatic relief | reduce the level of NO present |
| COC(=O)[C@@H](N)CCCNC(=N)N[N+](=O)[O-] [L-NAME, nitro-L-arginine methyl ester] | effective in treating the patients and providing symptomatic relief |  |
